This note sets out measurements from US9719981B2, “RAC1 inhibitors for the treatment of alport glomerular disease” (Father Flanagan's Boys' Home, priority 2012, dated 2017).

In assay [1] the test system is 129 Sv/J autosomal Alport mice. It is filed as in vivo. As for the experimental part: Immunofluorescence microscopy. Fresh frozen kidneys were sectioned at 8-μm and acetone fixed. Sections were incubated overnight at 4° C. in primary antibody solution. The dual stain consisting of rat anti-mouse Laminin-α2 antibody (Sigma-Aldrich, St. Louis, Mo.) at 1:200 and rabbit anti-mouse phospho-FAK 397 antibody at 1:25 as well as the dual stain of goat anti-mouse Integrin α8 antibody (R & D Systems, Minneapolis, Minn.) at 1:1000 and rabbit anti-mouse Laminin-5 antibody, at 1:1000 were diluted in 0.3% PBST+5% FBS. Rabbit anti-mouse Fibronectin antibody at 1:300 and rat anti-mouse CD11b antibody at 1:100 were diluted in 7% Milk. Slides were rinsed with 1×PBS and incubated with the appropriate Alexa Fluor donkey secondary antibodies at 1:300 for 1 hour at room temperature. They were then rinsed again with 1×PBS and mounted with Vectashield Mounting Medium with DAPI (Vector, Burlingame, Calif.). The dual stain of mouse-anti rat Laminin α1 antibody at 1:300 and rabbit anti-mouse phospho-FAK 397 antibody at 1:25 were diluted in 0.3% PBST+5% NGS and incubated overnight at 4° C. Slides were rinsed with 1×PBS and incubated with the appropriate Alexa Fluor goat secondary antibodies at 1:300 for 1 hour at room temperature. They were then rinsed again with 1×PBS and mounted with Vectashield Mounting Medium with DAPI.
Real time qRT-PCR. Total RNA was reverse transcribed using […]® III (Invitrogen, Life Technologies, Grand Island, N.Y.) with Oligo(dT)20 Primer (Invitrogen). The real time PCR was carried out using TAQMAN® Gene Expression Master Mix (Applied Biosystems, Life Technologies, Grand Island, N.Y.), and quantified using STEPONEPLUS™ Real-Time PCR System (Applied Biosystems). Samples were normalized to Mouse GAPDH Endogenous Control VIC® Probe (Applied Biosystems catalogue #4352339E) which was run alongside MMP-9 (Catalog #4331182, ID# Mm00442991_m1), MMP-10 (Catalog #4331182, ID# Mm00444630_m1), MMP-12 (Catalog #4331182, ID# Mm00500554_m1), IL-6 (Catalog #4331182, ID# Mm00446190_m1), NFKbia (Catalog #4331182, ID# Mm00477798_m1), and FAK (Catalog #4331182, ID# Mm00433209_m1) TAQMAN® Gene Expression Assay Probes (Applied Biosystems). Samples were run in triplicate with a final reaction volume of 20 ul with the following cycling parameters: 50° C. for 2 min, 95° C. for 10 min, followed by 40 cycles of a two-step PCR consisting of 95° C. for 15 s and 60° C. for 1 min. Relative changes in gene expression were determined by calculating the fold change using the comparative CT method of 2^−ΔΔCT. Data are expressed as the mean with standard deviation for at least four independent RNA samples per data point.
Treatment of mice with TAE226. Four Col 4A3 knockout mice from 129 Sv/J background were given 50 mg/Kg TAE226 (ChemScene, LLC Monmouth Junction, N.J.) 1× daily by gavage needle starting at two weeks of age until seven weeks old. The TAE226 was diluted in a 0.5% carboxy methyl cellulose suspension. Three control Col 4a3 knockout mice of the same age were given 0.5% CMC suspension alone and served as controls.
Albumin and creatinine assays. Urine was collected weekly and albumin concentrations were analyzed as instructed using a mouse albumin ELISA kit #MSAKT from Molecular Innovations (Novi, Mich.). Albumin levels were normalized to creatinine using QuantiChrom Creatinine Assay Kit (DICT-500) (BioAssay Systems, Hayward, Calif.) as instructed.
Transmission electron microscopy. Transmission electron microscopy was performed as described previously (Cosgrove et al., 2000, Am J Pathol; 157: 1649-1659).

The next assay concerns FAK. Kind of assay: pFAK397 western blot in primary mesangial cells with TAE226. It is filed as cell-based, mouse. Conditions: 0.5 and 1.0 μM TAE226, five hours. As to the method: Primary Mesangial Cells were derived and characterized as previously described (Cosgrove et al., 2008, Am J Pathol; 172: 761-773). Three independent Transwell Migration Assays were performed using 0.5 μM TAE226 as previously described. For pFAK Western Blot^397, cells were maintained on 1% FCS-containing media for two days, overnight in 0.1% BSA (Fraction V, Roche Diagnostics, Mannheim, Germany) and TAE226 added to 0.5 and 1.0 μM. After five hours protein was collected in M-PER™ (Thermo Scientific, Rockford, Ill.) containing Protease Inhibitor Cocktail P8340 at 1:100 (Sigma, St. Louis, Mo.), 5 mM Sodium Fluoride (Sigma), and 2 mM Sodium Orthovanadate (Sigma) and Western Blots run as described below.
Immunoblotting. Ten to fifteen micrograms, of cellular protein, was resolved in a 10% SDS-PAGE and then electrotransfered to PVDF membrane. The membranes were cut in half and the upper half (250 kDa to 75 kDa) used for pFAK/tFAK immunoblotting while the bottom half used for β-actin immunoblotting (loading control). Conditions for pFAK detection: the membrane was blocked in milk blocking solution (5% milk containing 0.2% Tween-20 in PBS) for 1 hour at room temperature with constant shaking and incubated overnight at 4° C. with anti-pFAK 1:1,000 in BSA blocking solution (1% BSA containing 0.2% Tween-20 in PBS). […]

The mark [2] stands for this setting: 50 mg/Kg daily, 2 to 7 weeks, relative to vehicle.
[3] abbreviates: at 6 weeks of age, relative to vehicle.
Where [4] appears, read: by 7 weeks of age, relative to vehicle.

Where two headings read alike, the source gives them in different places.

Turning to `CNC(=O)c1ccccc1Nc1nc(Nc2ccc(N3CCOCC3)cc2OC)ncc1Cl` [TAE226], in assay [1] (50 mg/Kg 1× daily by gavage, two to seven weeks of age), the “pFAK immunostaining in podocytes in vivo” value is recorded as “abolished”. Further, in assay [1] (setting [2]), the “Glomerular mRNA expression level of MMP-9” value is “significantly reduced”, the “Glomerular mRNA expression level of MMP-10” value was “significantly reduced” and the “Glomerular mRNA expression level of MMP-12” value was “significantly reduced”. Also, in assay [1] (7 weeks of age), the “Monocytic infiltration (CD11b immunostaining)” value was “remarkably robust reduction” and the “Renal scarring (fibronectin immunostaining)” value is “remarkably robust reduction”. For the same compound, the “GBM architecture (transmission electron microscopy)” value in assay [1] (7 weeks of age, relative to vehicle) is recorded as “markedly improved”. Moreover, in assay [1] (Alport mice), the Glomerulosclerosis result is on record as “ameliorated”. Moreover, in assay [1] (setting [3]), the “Blood urea nitrogen levels” value is reported as “significant reduction” and the Proteinuria entry is recorded as “significant reduction”. Further, in assay [1] (setting [4]), the “Blood urea nitrogen levels” value is on record as “loose significance” and the Proteinuria entry is given as “loose significance”. The “Mesangial process invasion of glomerular capillary loops” value in assay [1] (integrin α8 / laminin α5 immunostaining, vs vehicle) is given as “amelioration”. Besides, in the assay on FAK, the “pFAK activation in mesangial cells” value is recorded as “blocked pFAK activation in a dose-dependent manner”.
